In ChEMBL document CHEMBL1142909, “Synthesis and insecticidal activity of chromanone and chromone analogues of diacylhydrazines” (2007) one finds Activity data, which are given here for 17 molecules.

Holding throughout (type): functional
One test deals with Tetranychus cinnabarinus. The test can be described thus: Insecticidal activity against Tetranychus cinnabarinus at 250 mg/L relative to control.
Another test relates to Nilaparvata lugens. As to the kind of experiment: Insecticidal activity against Nilaparvata lugens at 500 mg/L relative to control.
For a further test, the system named is Aphis. The test can be described thus: Insecticidal activity against Aphis medicagini at 250 mg/L relative to control.
The next test relates to Mythimna separata. The test can be described thus: Insecticidal activity against Mythimna separata at 500 mg/L relative to control.

As for `Cc1cccc(C(=O)NN(C(=O)c2coc3ccc(Cl)cc3c2=O)C(C)(C)C)c1`, the Activity in the test with Tetranychus cinnabarinus stood at 0%; in the test on Nilaparvata lugens it was 7.1%; in the test with Aphis it was 6%; in the test with Mythimna separata, 26.7%.

As to `CC(C)(C)N(NC(=O)c1cccc(Cl)c1)C(=O)c1coc2ccccc2c1=O`, the Activity was 0% with Tetranychus cinnabarinus, 0% in the test with Nilaparvata lugens, 4% in the test with Aphis and 20% in the test with Mythimna separata.

Turning to `Cc1ccccc1C(=O)N(NC(=O)c1ccc2c(c1)C(=O)CC(C)(C)O2)C(C)(C)C`, the Activity in the test with Tetranychus cinnabarinus is 0%; in the test on Nilaparvata lugens, 3.4%; in the test with Aphis, 0%; in the test on Mythimna separata, 40%.

As to `CC(C)(C)N(NC(=O)c1ccccc1)C(=O)c1coc2ccc(Cl)cc2c1=O`, the Activity was determined as 0% with Tetranychus cinnabarinus, 18.2% in the test on Nilaparvata lugens, 0% in the test on Aphis and 58.3% with Mythimna separata.

For the molecule `CC1(C)CC(=O)c2cc(C(=O)NN(C(=O)c3ccccc3F)C(C)(C)C)ccc2O1`, the Activity with Tetranychus cinnabarinus was found to be 76.7%; with Nilaparvata lugens it was 3.4%; with Aphis, 4%; in the test on Mythimna separata, 0%.

On to `CC1(C)CC(=O)c2cc(C(=O)NN(C(=O)c3ccc(F)cc3)C(C)(C)C)ccc2O1`, for which the Activity was 0% with Tetranychus cinnabarinus, 0% in the test on Nilaparvata lugens, 4% in the test with Aphis and 0% with Mythimna separata.

As to `CC(C)(C)N(NC(=O)c1ccc(Cl)cc1)C(=O)c1coc2ccccc2c1=O`, the Activity in the test with Tetranychus cinnabarinus worked out at 0%; with Nilaparvata lugens it was 0%; with Aphis, 2%; in the test on Mythimna separata, 66.7%.

Consider `CC1(C)CC(=O)c2cc(C(=O)NN(C(=O)c3cccc(Cl)c3)C(C)(C)C)ccc2O1`, for which the Activity was 0% in the test on Tetranychus cinnabarinus, 0% in the test with Nilaparvata lugens, 0% with Aphis and 13.3% with Mythimna separata.

As for `CC(C)(C)N(NC(=O)c1cccc(Cl)c1)C(=O)c1coc2ccc(Cl)cc2c1=O`, the Activity in the test with Tetranychus cinnabarinus is 0%; in the test with Nilaparvata lugens it was 0%; with Aphis, 16%; in the test with Mythimna separata, 73.3%.

In the case of `CC1(C)CC(=O)c2cc(C(=O)NN(C(=O)c3ccccc3)C(C)(C)C)ccc2O1`, the Activity is 0% in the test on Tetranychus cinnabarinus, 0% in the test on Nilaparvata lugens, 8% in the test on Aphis and 80% in the test on Mythimna separata.

As to `Cc1cc(C)cc(C(=O)N(NC(=O)c2ccc3c(c2)C(=O)CC(C)(C)O3)C(C)(C)C)c1`, the Activity amounted to 66.7% in the test with Tetranychus cinnabarinus, 7.1% in the test on Nilaparvata lugens, 8% with Aphis and 100% in the test on Mythimna separata.

Consider `CC1(C)CC(=O)c2cc(C(=O)NN(C(=O)c3ccc(Br)cc3)C(C)(C)C)ccc2O1`, for which the Activity was 0% with Tetranychus cinnabarinus, 0% with Nilaparvata lugens, 4% in the test on Aphis and 6.7% with Mythimna separata.

Regarding `Cc1ccc2occ(C(=O)N(NC(=O)c3ccccc3)C(C)(C)C)c(=O)c2c1`, the Activity in the test with Tetranychus cinnabarinus was found to be 51.7%; with Nilaparvata lugens it was 0%; in the test with Aphis, 0%; in the test with Mythimna separata it was 60%.

In the case of `Cc1ccc2occ(C(=O)N(NC(=O)c3cccc(Cl)c3)C(C)(C)C)c(=O)c2c1`, the Activity in the test with Tetranychus cinnabarinus was 0%; with Nilaparvata lugens, 3.4%; in the test with Aphis, 0%; in the test on Mythimna separata, 26.7%.

Regarding `CC(C)(C)N(NC(=O)c1ccccc1)C(=O)c1coc2ccccc2c1=O`, the Activity in the test on Tetranychus cinnabarinus is 0%; in the test on Nilaparvata lugens, 7.1%; with Aphis, 21.1%; in the test on Mythimna separata it was 0%.

Consider `CC1(C)CC(=O)c2cc(C(=O)NN(C(=O)c3ccc(Cl)cc3)C(C)(C)C)ccc2O1`, for which the Activity with Tetranychus cinnabarinus is 0%; in the test with Nilaparvata lugens it was 0%; with Aphis it was 4.2%; in the test with Mythimna separata it was 84.2%.

For the molecule `CC1(C)CC(=O)c2cc(C(=O)NN(C(=O)c3ccccc3Cl)C(C)(C)C)ccc2O1`, the Activity in the test on Tetranychus cinnabarinus turned out to be 58.3%; with Nilaparvata lugens, 0%; with Aphis it was 8%; with Mythimna separata, 66.7%.
